Source: the NIST ThermoML archive (doi:10.1021/je500275j)

Experiment: xn = mol fraction of the nth substance listed
Conditions: 100 kPa, Liquid; for viscosity: Falling or rolling sphere viscometry; for mass density: Vibrating tube method

CCC1CCCCC1 [ethylcyclohexane] + C1CCC(C2CCCCC2)CC1
Conditions | mass density [kg/m3] | viscosity [mPa·s]
293.15 K, x2 = 0 | 788.23 | 0.851
293.15 K, x2 = 0.1001 | 801.13 | 0.996
293.15 K, x2 = 0.2003 | 813.19 | 1.164
293.15 K, x2 = 0.3001 | 824.41 | 1.369
293.15 K, x2 = 0.4002 | 835.03 | 1.621
293.15 K, x2 = 0.498 | 844.69 | 1.848
293.15 K, x2 = 0.5996 | 854.14 | 2.139
293.15 K, x2 = 0.6996 | 862.93 | 2.451
293.15 K, x2 = 0.7983 | 871.02 | 2.874
293.15 K, x2 = 0.901 | 879.05 | 3.379
298.15 K, x2 = 0 | 784.2 | 0.796
298.15 K, x2 = 0.1001 | 797.17 | 0.934
298.15 K, x2 = 0.2003 | 809.29 | 1.079
298.15 K, x2 = 0.3001 | 820.56 | 1.264
298.15 K, x2 = 0.4002 | 831.23 | 1.488
298.15 K, x2 = 0.498 | 840.93 | 1.685
298.15 K, x2 = 0.5996 | 850.42 | 1.94
298.15 K, x2 = 0.6996 | 859.24 | 2.21
298.15 K, x2 = 0.7983 | 867.36 | 2.574
298.15 K, x2 = 0.901 | 875.42 | 3.003
303.15 K, x2 = 0 | 780.16 | 0.748
303.15 K, x2 = 0.1001 | 793.2 | 0.874
303.15 K, x2 = 0.2003 | 805.38 | 1.004
303.15 K, x2 = 0.3001 | 816.7 | 1.173
303.15 K, x2 = 0.4002 | 827.42 | 1.372
303.15 K, x2 = 0.498 | 837.16 | 1.547
303.15 K, x2 = 0.5996 | 846.72 | 1.77
303.15 K, x2 = 0.6996 | 855.55 | 2.005
303.15 K, x2 = 0.7983 | 863.7 | 2.322
303.15 K, x2 = 0.901 | 871.8 | 2.689
308.15 K, x2 = 0 | 776.11 | 0.704
308.15 K, x2 = 0.1001 | 789.22 | 0.82
308.15 K, x2 = 0.2003 | 801.46 | 0.938
308.15 K, x2 = 0.3001 | 812.84 | 1.091
308.15 K, x2 = 0.4002 | 823.6 | 1.258
308.15 K, x2 = 0.498 | 833.39 | 1.428
308.15 K, x2 = 0.5996 | 842.97 | 1.626
308.15 K, x2 = 0.6996 | 851.86 | 1.828
308.15 K, x2 = 0.7983 | 860.05 | 2.106
308.15 K, x2 = 0.901 | 868.18 | 2.425
313.15 K, x2 = 0 | 772.04 | 0.665
313.15 K, x2 = 0.1001 | 785.22 | 0.77
313.15 K, x2 = 0.2003 | 797.53 | 0.879
313.15 K, x2 = 0.3001 | 808.96 | 1.018
313.15 K, x2 = 0.4002 | 819.79 | 1.175
313.15 K, x2 = 0.498 | 829.62 | 1.32
313.15 K, x2 = 0.5996 | 839.25 | 1.492
313.15 K, x2 = 0.6996 | 848.18 | 1.675
313.15 K, x2 = 0.7983 | 856.4 | 1.92
313.15 K, x2 = 0.901 | 864.56 | 2.197
318.15 K, x2 = 0 | 767.96 | 0.629
318.15 K, x2 = 0.1001 | 781.22 | 0.727
318.15 K, x2 = 0.2003 | 793.59 | 0.825
318.15 K, x2 = 0.3001 | 805.08 | 0.951
318.15 K, x2 = 0.4002 | 815.96 | 1.094
318.15 K, x2 = 0.498 | 825.85 | 1.225
318.15 K, x2 = 0.5996 | 835.52 | 1.381
318.15 K, x2 = 0.6996 | 844.5 | 1.542
318.15 K, x2 = 0.7983 | 852.76 | 1.759
318.15 K, x2 = 0.901 | 860.95 | 2.002
